Values quoted from earlier work in patent publication US11491200B2, “Herbal compositions and methods for the prevention and treatment of nail infections” (Produits Naturels Mondias Inc., priority 2016, dated 2022).

Test system: onychomycosis
Conditions: mild-to-moderate onychomycosis; versus 3% for placebo

Q: For C=C1CCN([C@H](C)[C@](O)(Cn2cncn2)c2ccc(F)cc2F)CC1 [Jublia], which efficacy is on record?
A: 17%
